Test systems include NCI-H23 lung; IGROV1 ovarian; CCRF-CEM leukemia; OVCAR-3 ovarian; MOLT-4 leukemia; UACC-257 melanoma; SK-MEL-28 melanoma; SF-539 CNS; SNB-19 CNS; A498 renal.
Common to all, as to experiment: NCI tumour cell line growth inhibition, 48 h

Each structure is given as a SMILES string.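 The compound was tested at five concentrations on cells cultured in 96-well plates, with a 48-hour exposure period. Here, GI50 denotes the concentration required for 50% inhibition of growth. Definition used: TGI = concentration required for complete inhibition of growth.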

Consider `CCOP(=O)(Cc1ccc(CP(=O)(OCC)OCC)n1C)OCC`, for which the TGI in the experiment with NCI-H23 lung, in the experiment on IGROV1 ovarian, in the experiment with CCRF-CEM leukemia, in the experiment on OVCAR-3 ovarian, in the experiment with MOLT-4 leukemia and in the experiment with UACC-257 melanoma was > 100 µM throughout. Further, the TGI with SK-MEL-28 melanoma, with SF-539 CNS and in the experiment on SNB-19 CNS was > 100 µM in each case.
For `C/C(=C\CCc1ccoc1)CC/C=C(\C)CCCC1=CC(=O)OC1`, the GI50 is 4.74 µM with NCI-H23 lung; 19.5 µM in the experiment with IGROV1 ovarian; 9.69 µM in the experiment on OVCAR-3 ovarian; 3.94 µM in the experiment with MOLT-4 leukemia; 2.81 µM in the experiment with UACC-257 melanoma; 7.98 µM in the experiment on SK-MEL-28 melanoma. In addition, the figures for the GI50 in the experiment with SF-539 CNS, in the experiment on SNB-19 CNS and with A498 renal were 13.2 µM, 17.7 µM and 1.29 µM, respectively. For the same molecule, the TGI was 29.6 µM in the experiment with NCI-H23 lung; > 100 µM in the experiment on IGROV1 ovarian; 25 µM in the experiment on OVCAR-3 ovarian; 15.4 µM in the experiment with MOLT-4 leukemia; 11.3 µM in the experiment with UACC-257 melanoma; 46.7 µM in the experiment with SK-MEL-28 melanoma. Moreover, the TGI was 40.1 µM in the experiment with SF-539 CNS, > 100 µM in the experiment on SNB-19 CNS and 16.5 µM with A498 renal.
On to `O=C1c2ccccc2C2(Br)C(=O)c3ccccc3C12` (centres undefined), for which the TGI with NCI-H23 lung, with IGROV1 ovarian, with CCRF-CEM leukemia, with OVCAR-3 ovarian, in the experiment with MOLT-4 leukemia and with UACC-257 melanoma was > 100 µM in each case. Moreover, the TGI in the experiment on SK-MEL-28 melanoma and in the experiment on SF-539 CNS was > 100 µM in each case.
As for `O=C1CN=C(C[N+](=O)[O-])c2ccccc21`, the TGI in the experiment with NCI-H23 lung, in the experiment on IGROV1 ovarian, in the experiment on OVCAR-3 ovarian, with MOLT-4 leukemia, with UACC-257 melanoma and with SK-MEL-28 melanoma was > 100 µM in each case. Further, the TGI with SF-539 CNS, in the experiment on SNB-19 CNS and in the experiment with A498 renal was > 100 µM each time.
Consider `O=[n+]1c2c(n([O-])c3ccccc31)CCCCCCCCCC2`, for which the TGI with NCI-H23 lung, in the experiment with IGROV1 ovarian, in the experiment with CCRF-CEM leukemia, in the experiment with OVCAR-3 ovarian, in the experiment with MOLT-4 leukemia and in the experiment on UACC-257 melanoma was > 100 µM in each case. Further, the TGI with SK-MEL-28 melanoma, with SF-539 CNS and with SNB-19 CNS was > 100 µM in each case.
For the molecule `Clc1ccc2c(NCCCNc3nccc(Nc4ccc(Br)cc4)n3)ccnc2c1`, the GI50 in the experiment on NCI-H23 lung was 1.74 µM; in the experiment with OVCAR-3 ovarian, 1.75 µM; in the experiment with UACC-257 melanoma, 1.87 µM; in the experiment with SK-MEL-28 melanoma it was 1.65 µM; in the experiment on SF-539 CNS, 1.81 µM; with SNB-19 CNS, 1.75 µM. In the experiment with A498 renal, the GI50 was 1.22 µM. For the same molecule, the TGI in the experiment with NCI-H23 lung worked out at 3.27 µM; in the experiment on OVCAR-3 ovarian, 3.23 µM; in the experiment with UACC-257 melanoma, 3.4 µM; in the experiment on SK-MEL-28 melanoma it was 3.15 µM; in the experiment on SF-539 CNS, 3.37 µM; with SNB-19 CNS, 3.32 µM. For the same molecule, the TGI in the experiment with A498 renal came out at 2.48 µM.
In the case of `CNC(=S)NC1CCCCC1NC(=S)NC` (centres undefined), the TGI with NCI-H23 lung, with IGROV1 ovarian, in the experiment on CCRF-CEM leukemia, with OVCAR-3 ovarian, in the experiment on MOLT-4 leukemia and in the experiment with SK-MEL-28 melanoma was > 100 µM throughout. Further, the TGI in the experiment with SF-539 CNS and with SNB-19 CNS was > 100 µM each time.
As to `COC(=O)c1cc2c3ccccc3n(C(C)=O)c2cn1`, the TGI in the experiment with NCI-H23 lung, with IGROV1 ovarian, with CCRF-CEM leukemia, with OVCAR-3 ovarian, in the experiment with MOLT-4 leukemia and in the experiment on UACC-257 melanoma was > 100 µM each time. Moreover, the TGI in the experiment on SK-MEL-28 melanoma, in the experiment with SF-539 CNS and in the experiment with SNB-19 CNS was > 100 µM in each case.
Consider `C=CC1CC12C(=O)C1OC2(C)C2C(=O)c3cc4ccccc4cc3C(=O)C12` (centres undefined), for which the GI50 in the experiment on NCI-H23 lung was 25.9 µM; in the experiment on IGROV1 ovarian, 39 µM; in the experiment on MOLT-4 leukemia, 15.8 µM; in the experiment on UACC-257 melanoma, 21.5 µM; with SK-MEL-28 melanoma it was 24.7 µM; in the experiment on SF-539 CNS, 30.2 µM. For the same molecule, the GI50 in the experiment on SNB-19 CNS is 56.7 µM. The TGI in the experiment on NCI-H23 lung was > 100 µM; in the experiment with IGROV1 ovarian, > 100 µM; in the experiment on MOLT-4 leukemia, > 100 µM; with UACC-257 melanoma, 65.5 µM; in the experiment with SK-MEL-28 melanoma, > 100 µM; with SF-539 CNS it was 96.9 µM. For the same molecule, the TGI in the experiment with SNB-19 CNS is > 100 µM.
For the molecule `O=C1OC(c2ccccc2)=N/C1=C/C=C/c1ccco1`, the TGI in the experiment on NCI-H23 lung, in the experiment on IGROV1 ovarian, in the experiment on CCRF-CEM leukemia, in the experiment on OVCAR-3 ovarian, in the experiment on MOLT-4 leukemia and with SK-MEL-28 melanoma was > 100 µM each time. Moreover, the TGI in the experiment on SF-539 CNS and with SNB-19 CNS was > 100 µM in each case.
As to `OCCN1CN(CCO)CN(c2nc(N3CN(CCO)CN(CCO)C3)nc(N3CN(CCO)CN(CCO)C3)n2)C1`, the GI50 in the experiment on NCI-H23 lung is 1.42 ng/mL; in the experiment with IGROV1 ovarian, 1.55 ng/mL; with OVCAR-3 ovarian, 2.2 ng/mL; in the experiment on MOLT-4 leukemia, 1.23 ng/mL; with UACC-257 melanoma it was 1.42 ng/mL; in the experiment with SNB-19 CNS, 1.08 ng/mL. Also, the GI50 with A498 renal was 1.61 ng/mL. The TGI came to 4.39 ng/mL in the experiment with NCI-H23 lung; 4.61 ng/mL in the experiment with IGROV1 ovarian; 6300 ng/mL with OVCAR-3 ovarian; 4.78 ng/mL in the experiment on MOLT-4 leukemia; 3.14 ng/mL in the experiment on UACC-257 melanoma; 63 ng/mL in the experiment with SNB-19 CNS. The TGI in the experiment with A498 renal is 4.96 ng/mL.
For the molecule `O=S(=O)(Nc1cc(F)cc(Cl)c1)c1ccc(-c2cnc(C3CC3)o2)cc1`, the GI50 in the experiment on NCI-H23 lung was 2.62 µM; in the experiment on IGROV1 ovarian, 0.771 µM; with CCRF-CEM leukemia, 1.71 µM; in the experiment with OVCAR-3 ovarian, 0.489 µM; in the experiment on MOLT-4 leukemia, 2.55 µM; with UACC-257 melanoma it was 13.6 µM. In addition, the GI50 with SK-MEL-28 melanoma is 10.3 µM; in the experiment on SF-539 CNS it was 1.25 µM; in the experiment on SNB-19 CNS, 1.46 µM. The TGI with NCI-H23 lung is 18.3 µM; in the experiment on IGROV1 ovarian, 17.5 µM; with CCRF-CEM leukemia, > 100 µM; in the experiment on OVCAR-3 ovarian, 12.2 µM; in the experiment with MOLT-4 leukemia, > 100 µM; with UACC-257 melanoma, 34.9 µM. Also, the TGI in the experiment with SK-MEL-28 melanoma was found to be 23.7 µM; in the experiment on SF-539 CNS, 10.5 µM; in the experiment with SNB-19 CNS, 16.7 µM.
Turning to `O=Cc1cc2c(cc1-c1c(C=O)ccc3c1OCO3)OCO2`, the TGI in the experiment on NCI-H23 lung, in the experiment with IGROV1 ovarian, in the experiment with CCRF-CEM leukemia, in the experiment with OVCAR-3 ovarian, in the experiment with MOLT-4 leukemia and with UACC-257 melanoma was > 10 µM in each case. Also, the TGI with SK-MEL-28 melanoma, in the experiment with SF-539 CNS and in the experiment with SNB-19 CNS was > 10 µM throughout.
For `COc1ccc(N(C)c2ncnc3occ(C)c23)cc1`, the GI50 in the experiment on NCI-H23 lung is < 0.01 µM; in the experiment with IGROV1 ovarian, < 0.01 µM; in the experiment with MOLT-4 leukemia, < 0.01 µM; in the experiment with UACC-257 melanoma, 29.6 µM; in the experiment on SK-MEL-28 melanoma, < 0.01 µM; in the experiment on SF-539 CNS it was < 0.01 µM. Further, the GI50 in the experiment with SNB-19 CNS and with A498 renal was < 0.01 µM in each case. Moreover, the TGI was > 100 µM with NCI-H23 lung; > 100 µM with IGROV1 ovarian; 0.0481 µM in the experiment with MOLT-4 leukemia; > 100 µM in the experiment on UACC-257 melanoma; > 100 µM with SK-MEL-28 melanoma; < 0.01 µM in the experiment on SF-539 CNS. Also, the TGI in the experiment with SNB-19 CNS was > 100 µM; in the experiment with A498 renal, < 0.01 µM.
With `COc1ccc(NC(=O)CCc2cc(-c3ccc(O)c(OC)c3)nc(NC#N)n2)cc1`, the TGI with NCI-H23 lung, with IGROV1 ovarian, with CCRF-CEM leukemia, with OVCAR-3 ovarian, in the experiment on MOLT-4 leukemia and with UACC-257 melanoma was > 100 µM throughout. Besides, the TGI with SK-MEL-28 melanoma, with SF-539 CNS and in the experiment on SNB-19 CNS was > 100 µM each time.
As for `CCCCc1c(OC)cc(O)c2c1C(=O)c1[nH]c(C(=O)O)c(O)c(=O)c1C2=O`, the TGI was 20.3 µM in the experiment with NCI-H23 lung; 64.2 µM in the experiment with IGROV1 ovarian; > 100 µM in the experiment with CCRF-CEM leukemia; 8.45 µM in the experiment on OVCAR-3 ovarian; > 100 µM in the experiment with MOLT-4 leukemia; 46.6 µM in the experiment with UACC-257 melanoma. The TGI in the experiment on SK-MEL-28 melanoma is > 100 µM; with SF-539 CNS, 2.54 µM; in the experiment with SNB-19 CNS, 15.1 µM.
For the molecule `CC(C)(C)C(=O)OCOP(=O)(OCOC(=O)C(C)(C)C)C1CCCN(O)C1=O` (centres undefined), the GI50 was 0.564 µM in the experiment on NCI-H23 lung; 0.393 µM with IGROV1 ovarian; 0.185 µM with CCRF-CEM leukemia; 0.559 µM in the experiment on OVCAR-3 ovarian; 0.431 µM in the experiment on MOLT-4 leukemia; 1.19 µM with UACC-257 melanoma. The GI50 is 0.321 µM in the experiment with SK-MEL-28 melanoma, 1.52 µM in the experiment on SF-539 CNS and 0.551 µM in the experiment with SNB-19 CNS. Further, the TGI is 3.4 µM in the experiment with NCI-H23 lung; 2.73 µM with IGROV1 ovarian; 2.3 µM in the experiment on CCRF-CEM leukemia; > 100 µM with OVCAR-3 ovarian; 2.69 µM with MOLT-4 leukemia; 13.5 µM in the experiment on UACC-257 melanoma. The TGI with SK-MEL-28 melanoma is 1.14 µM; with SF-539 CNS, 11.8 µM; with SNB-19 CNS, 28.7 µM.

Source of the values: PubChem BioAssay (NCI).
